The text below walks through data of patent publication US5523421A (Pacific Corporation, priority 1993, dated 1996).

The target of data set [1] is tyrosinase. In words: Tyrosinase-inhibiting activity. The format is biochemical, mushroom. The following applies: for IC50: mushroom tyrosinase, tyrosine substrate, pH 6.8, 37° C., 10 minutes, absorbance at 475 nm. As for the experimental part: As an enzyme, the tyrosinase, which was extracted from mushroom and produced by SIGMA was purchased. Tyrosine, a substrate was dissolved into distilled water to a concentration of 0.3 mg/ml and each 1.0 ml of the solution was placed into a test tube. […] Ethanol and water were used to dilute the test compounds. As a control, 0.9 ml of 1:1 mixture of ethanol and water was used. […] The test tube was quickly cooled in an ice water bath to stop the reaction, and the absorbance was measured at 475 nm. […] From the inhibitions(%) of tyrosinase by a series of dilutions of test compounds, IC50, i.e., a concentration of test compound which inhibit the tyrosinase by 50% was calculated for each test compound.

Data set [2] can be described thus: DPPH (diphenylpicrylhydrazyl) radical-scavenging test. The conditions noted are these: 100 μM DPPH in ethanol, 37° C., 30 minutes, 515 nm. As for the experimental part: Harmful radicals-scavenging activity of the compounds of Examples 1 through 6 were compared with those of conventional anti-oxidants by using DPPH(diphenylpicrylhydrazyl) radical-scavenging test as follows:
DPPH was dissolved into ethanol to a concentration of 100 μM. A series of dilutions of compounds of Examples 1 through 6, vitamin C, vitamin E or hydroquinone were prepared.
Ethanol and water were used to dilute the test compounds. As a control, 1:1 mixture of ethanol and water was used. The series of dilutions of each test compound were mixed with 1,900 μl of DPPH solution and the dilution solvent was added to 2.0 ml. The resulting mixture was reacted in a 37° C. incubator for 30 minutes. The absorbance was measured at 515 nm. The radical-scavenging activities of the compounds of Examples 1 through 6 and conventional anti-oxidants were calculated by employing the following equation: [formula]
From the radical scavenging activity(%) by a series of dilutions of test compounds, IC50, i.e., a concentration of test compound which scavenge the radical, DPPH by 50% was calculated for each test compound.
(The DPPH test is a chemical assay of radical scavenging.)

In a further data set the test system is human skin. The experiment in a line: human body patch test (skin safety). It counts as in vivo. The conditions noted are these: for number of positive subject/the number of total subjects, 48 hours later / number of positive subject/the number of total subjects, 96 hours later: 0.2 wt % in cream, 20 μl finn chamber on brachium; for safety to human skin (in words): patch test conclusion. As for the experimental part:
In order to examine the safety of the compounds of Examples 1 through 6, the human body patch test was carried out as follows:
The brachium of thirty(30) healthy volunteers (15 females and 15 males) was thoroughly washed with 70% ethanol and applied with a finn chamber containing 20 μl of a conventional creamy preparation incorporating 0.2 wt % of one of the compound of Examples 1 to 6. The finn chamber was thoroughly bonded to the brachium using an adhesive tape. 48 hours later, the tape and chamber were removed, and the adherent site of the arm was wiped with a gauze to remove the remaining preparation and observed for redness(erythma), swelling, and papuol. 48 hours later, the site was examined again.
The results are shown in terms of the number of positive subject/the number of total subjects.

Data set [3] has as its system tyrosinase. The following applies: background, known activity; cited from earlier work.

For orientation: IC50 means the midpoint of a concentration-inhibition curve. Higher therefore signals weaker potency. In turn, `O=C(OCc1cc(=O)c(O)co1)c1ccc(O)cc1` [Example 1, 2-(4-hydroxybenzoyl)oxymethyl-5-hydroxy-4H-pyran-4-one] registered a concentration for half-maximal inhibition (IC50) against tyrosinase [1] of 10 µM. Also, the IC50 in data set [2] worked out at 1910 µM. Moreover, in the data set on human skin, the “number of positive subject/the number of total subjects, 48 hours later” value was 0/30; the “number of positive subject/the number of total subjects, 96 hours later” value is 0/30; the “safety to human skin (in words)” value is “safe to the human skin”.
In the case of `O=C(OCc1cc(=O)c(O)co1)c1ccccc1O` [Example 2, 2-(2-hydroxybenzoyl)oxymethyl-5-hydroxy-4H-pyran-4-one], the half-inhibitory concentration (IC50) against tyrosinase [1] was 15 µM. The compound also returned a half-maximal inhibitory concentration (IC50) in data set [2] of 2230 µM. For the same compound, in the data set on human skin, the “number of positive subject/the number of total subjects, 48 hours later” value is 2/30; the “number of positive subject/the number of total subjects, 96 hours later” value is recorded as 0/30; the “safety to human skin (in words)” value was “safe to the human skin”.
`O=C(OCc1cc(=O)c(O)co1)c1cccc(O)c1` [Example 3, 2-(3-hydroxybenzoyl)oxymethyl-5-hydroxy-4H-pyran-4-one]: the IC50 against tyrosinase [1] came out at 15 µM. The same compound displayed a half-maximal inhibitory concentration (IC50) in data set [2] of 2030 µM. In the data set with human skin, the “number of positive subject/the number of total subjects, 48 hours later” value was 1/30; the “number of positive subject/the number of total subjects, 96 hours later” value is on record as 1/30; the “safety to human skin (in words)” value was “considered to be safe”. The “skin response after 96 hours (in words)” value with human skin (preparation with 0.2 wt % of compound, 96 hours) is recorded as “only one(1) among 30 subjects show a weak positive response”.
Regarding `O=C(OCc1cc(=O)c(O)co1)c1ccc(O)c(O)c1` [Example 4, 2-(3,4-dihydroxybenzoyl)oxymethyl-5-hydroxy-4H-pyran-4-one], in the data set on tyrosinase [1], the “tyrosinase-inhibiting activity (in words)” value is listed as “strongest tyrosinase-inhibiting activity” and half-maximal inhibition (IC50) was put at 4 µM. The compound further displayed a concentration for half-maximal inhibition (IC50) in data set [2] of 11.5 µM. In addition, in the data set with human skin, the “number of positive subject/the number of total subjects, 48 hours later” value was 1/30; the “number of positive subject/the number of total subjects, 96 hours later” value is reported as 0/30; the “safety to human skin (in words)” value is “safe to the human skin”.
At tyrosinase [1], `O=C(OCc1cc(=O)c(O)co1)c1cccc(O)c1O` [Example 5, 2-(2,3-dihydroxybenzoyl)oxymethyl-5-hydroxy-4H-pyran-4-one] returned a half-maximal inhibitory concentration (IC50) of 14 µM. Further, in data set [2], 11.3 µM corresponded to half-maximal inhibition (IC50). For the same compound, in the data set on human skin, the “number of positive subject/the number of total subjects, 48 hours later” value was 1/30; the “number of positive subject/the number of total subjects, 96 hours later” value is reported as 0/30; the “safety to human skin (in words)” value is recorded as “safe to the human skin”.
As to `O=C(OCc1cc(=O)c(O)co1)c1ccc(O)cc1O` [Example 6, 2-(2,4-dihydroxybenzoyl)oxymethyl-5-hydroxy-4H-pyran-4-one], in the data set with tyrosinase [1], the “tyrosinase-inhibiting activity (in words)” value is on record as “strongest tyrosinase-inhibiting activity” and it took 6 µM to reach half-maximal inhibition (IC50). Inhibition in data set [2] was half-maximal at 15 µM (IC50). Besides, in the data set on human skin, the “number of positive subject/the number of total subjects, 48 hours later” value was 0/30; the “number of positive subject/the number of total subjects, 96 hours later” value is recorded as 0/30; the “safety to human skin (in words)” value is “safe to the human skin”.
In data set [2], `Oc1ccc(O)cc1` [Hydroquinone, reference compound] yielded an IC50 of 25.4 µM.
As for `O=c1cc(CO)occ1O` [Kojic acid], the “tyrosinase inhibition (in words, prior art)” value with tyrosinase [3] is on record as “strongly inhibiting the action of tyrosinase”.
In the case of `O=C1O[C@H]([C@@H](O)CO)C(O)=C1O` [Vitamin C, reference compound], in data set [2], 29.2 µM corresponded to half-maximal inhibition (IC50).
Same read-out and setting: for “tocopherol [Vitamin E, reference compound]” the value was 34.8 µM.
